Data as given in ChEMBL document CHEMBL4665719, “Development of SKI-349, a dual-targeted inhibitor of sphingosine kinase and microtubule polymerization” (Bioorg Med Chem Lett, 2020).
Active and inactive are the calls of the source. The rule behind the calls is not given here.

Experiments:
[1] = Toxicity in sub-lethal irradiated C57BL/6J mouse xenografted with […] MLL-AF9 cells assessed as HCT level at 1 mg/kg measured after 2 weeks (reference value: 45 +/- 1.4 %); format: organism-based; settings: in vivo, 336 h
[2] = target: Non-receptor tyrosine-protein kinase TYK2 (Homo sapiens) (UniProt P29597); assay: Inhibition of wild-type human partial length TYK2 JH2 pseudokinase domain (G556 to D888 residues) expressed in mammalian expression system assessed as residual activity at 1 uM by Kinomescan method relative to control
Chain of Non-receptor tyrosine-protein kinase TYK2 (Homo sapiens) (P29597 whole entry, the tested form may be a part): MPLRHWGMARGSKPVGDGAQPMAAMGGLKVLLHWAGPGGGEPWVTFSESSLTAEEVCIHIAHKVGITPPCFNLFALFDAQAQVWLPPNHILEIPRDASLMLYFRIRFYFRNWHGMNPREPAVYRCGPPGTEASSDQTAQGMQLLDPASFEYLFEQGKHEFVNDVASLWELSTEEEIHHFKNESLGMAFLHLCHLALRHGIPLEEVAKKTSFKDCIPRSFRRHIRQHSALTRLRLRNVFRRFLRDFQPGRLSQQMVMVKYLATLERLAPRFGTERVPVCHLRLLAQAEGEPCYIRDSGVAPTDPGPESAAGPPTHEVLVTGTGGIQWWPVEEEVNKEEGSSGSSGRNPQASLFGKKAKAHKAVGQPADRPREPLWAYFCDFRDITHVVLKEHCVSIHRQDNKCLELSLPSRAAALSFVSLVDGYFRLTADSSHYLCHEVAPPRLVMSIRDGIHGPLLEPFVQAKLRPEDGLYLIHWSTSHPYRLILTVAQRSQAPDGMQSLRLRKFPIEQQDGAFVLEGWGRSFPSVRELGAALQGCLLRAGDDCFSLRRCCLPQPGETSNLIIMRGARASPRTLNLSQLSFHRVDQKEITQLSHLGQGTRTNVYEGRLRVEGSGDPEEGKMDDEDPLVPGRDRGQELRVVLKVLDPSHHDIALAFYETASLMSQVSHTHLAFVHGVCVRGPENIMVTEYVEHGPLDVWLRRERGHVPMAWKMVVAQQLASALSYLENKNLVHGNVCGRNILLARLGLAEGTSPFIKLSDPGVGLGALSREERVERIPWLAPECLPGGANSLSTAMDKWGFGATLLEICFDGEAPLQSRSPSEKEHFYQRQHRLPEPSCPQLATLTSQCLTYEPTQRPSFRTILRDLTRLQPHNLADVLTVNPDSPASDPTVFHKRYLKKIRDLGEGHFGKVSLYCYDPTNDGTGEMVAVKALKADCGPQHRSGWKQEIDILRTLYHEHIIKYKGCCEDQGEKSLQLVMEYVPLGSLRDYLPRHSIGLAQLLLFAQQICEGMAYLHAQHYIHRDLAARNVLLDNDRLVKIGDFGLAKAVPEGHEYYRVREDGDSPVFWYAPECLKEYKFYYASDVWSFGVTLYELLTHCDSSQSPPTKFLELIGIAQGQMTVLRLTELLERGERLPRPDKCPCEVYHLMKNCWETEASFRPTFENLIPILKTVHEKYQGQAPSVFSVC

[3] = target: T1, Sphingosine kinase 2 (Homo sapiens) (UniProt Q9NRA0); assay: Inhibition of SphK2 (unknown origin) catalytic activity at 2 to 5 uM; settings: dose microM 2-5
T1 sequence (whole entry): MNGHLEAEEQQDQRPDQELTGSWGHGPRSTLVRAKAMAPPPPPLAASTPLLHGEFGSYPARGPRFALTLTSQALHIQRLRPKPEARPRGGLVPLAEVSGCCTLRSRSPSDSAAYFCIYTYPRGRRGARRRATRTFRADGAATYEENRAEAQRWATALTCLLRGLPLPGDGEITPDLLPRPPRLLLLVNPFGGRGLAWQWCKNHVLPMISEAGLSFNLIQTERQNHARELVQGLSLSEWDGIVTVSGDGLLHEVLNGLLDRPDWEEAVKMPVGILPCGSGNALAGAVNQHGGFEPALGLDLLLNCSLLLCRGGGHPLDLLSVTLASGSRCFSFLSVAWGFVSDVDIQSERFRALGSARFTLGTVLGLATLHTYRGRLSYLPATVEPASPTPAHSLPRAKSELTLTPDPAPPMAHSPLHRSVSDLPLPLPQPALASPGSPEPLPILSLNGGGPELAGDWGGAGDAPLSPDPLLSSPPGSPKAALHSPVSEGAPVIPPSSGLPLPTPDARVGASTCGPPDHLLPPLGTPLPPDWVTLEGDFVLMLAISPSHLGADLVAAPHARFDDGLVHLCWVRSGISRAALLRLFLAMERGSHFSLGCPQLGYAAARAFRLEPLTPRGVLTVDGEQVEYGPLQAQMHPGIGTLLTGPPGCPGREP

[4] = system: MLL-AF9; assay: Antitumor activity against human MLL-AF9 xenografted in sub-lethal irradiated C57BL/6J mouse assessed as increase in mouse survival at 1 to 5 mg/kg administered every day; format: functional, organism-based; settings: dose mg/kg 1-5
[5] = target: Cyclin-dependent kinase 1 (Homo sapiens) (UniProt P06493); assay: Activation of CDK1 in human HL-60 cells assessed as induction of Bcl2 phosphorylation at Ser70 residue at 300 nM after 24 hrs in presence of Ro-3306 by Western blot analysis; format: cell-based
Chain of Cyclin-dependent kinase 1 (Homo sapiens) (P06493 whole entry, looked up, the tested form may be a part): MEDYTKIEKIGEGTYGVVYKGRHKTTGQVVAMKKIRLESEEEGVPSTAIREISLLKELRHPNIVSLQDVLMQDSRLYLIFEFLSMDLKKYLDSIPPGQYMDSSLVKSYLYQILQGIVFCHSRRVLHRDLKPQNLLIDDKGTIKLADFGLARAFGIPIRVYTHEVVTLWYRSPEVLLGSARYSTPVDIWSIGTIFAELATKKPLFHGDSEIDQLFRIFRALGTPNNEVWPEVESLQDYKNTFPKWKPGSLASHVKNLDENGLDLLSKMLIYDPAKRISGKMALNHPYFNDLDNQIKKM

[6] = target: T2, Sphingosine kinase 1/2 (Homo sapiens) (UniProt Q9NRA0+Q9NYA1); assay: Inhibition of SPHK1/SPHK2 in human HL-60 cells assessed as C18:0 ceramide level assessed per 10^6 cells at 500 nM after 24 hrs by LC-ESI/MS analysis (reference value: 1.6 +/- 0.2 pmol); format: cell-based
T2 sequence (Q9NYA1 whole entry, looked up, one chain of several): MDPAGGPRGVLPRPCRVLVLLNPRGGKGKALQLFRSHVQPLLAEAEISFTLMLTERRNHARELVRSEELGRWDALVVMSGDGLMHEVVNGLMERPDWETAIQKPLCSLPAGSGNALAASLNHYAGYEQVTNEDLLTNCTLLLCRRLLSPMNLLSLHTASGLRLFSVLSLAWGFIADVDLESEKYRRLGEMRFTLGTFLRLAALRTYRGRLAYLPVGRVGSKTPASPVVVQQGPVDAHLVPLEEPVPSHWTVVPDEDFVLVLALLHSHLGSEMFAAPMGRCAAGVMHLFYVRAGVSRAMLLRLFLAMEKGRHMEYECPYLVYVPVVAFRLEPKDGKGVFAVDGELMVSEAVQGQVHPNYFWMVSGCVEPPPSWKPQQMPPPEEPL

[7] = system: HL-60; assay: Cytotoxicity against human HL-60 cells assessed as reduction in cell viability after 48 hrs by MTT assay; format: functional, cell-based; settings: HL-60, 48 h
[8] = target: Tubulin (Homo sapiens) (UniProt P68371+Q9H4B7+P0DPH7+P68366+Q13509+Q71U36+P04350+Q3ZCM7+P07437+P68363+Q9BQE3+Q6PEY2+Q13885+Q9BVA1+Q9BUF5); assay: Inhibition of tubulin polymerization in human MOLM-13 cells assessed as disruption of microtubule network at 500 nM after 18 hrs by FITC-staining based flow cytometry analysis; format: cell-based
[9] = Effect on hematopoiesis in sub-lethal irradiated C57BL/6J mouse xenografted with […] MLL-AF9 cells assessed as CD45.1+/CD34 cells in spleen at 5 mg/kg measured after 6 weeks by flow cytometry analysis (reference value: 90 %); format: ADME, organism-based; settings: in vivo, 1008 h
[10] = Effect on hematopoiesis in sub-lethal irradiated C57BL/6J mouse xenografted with […] MLL-AF9 cells assessed as CD45.1+/CD34 cells in bone marrow at 2.5 mg/kg measured after 6 weeks by flow cytometry analysis (reference value: 93 %); format: ADME, organism-based; settings: in vivo, 1008 h
[11] = target: Cyclin-dependent kinase 1 (Homo sapiens) (UniProt P06493); assay: Activation of CDK1 in human HL60/VCR cells assessed as activation of caspase 7 at 300 nM after 24 hrs in presence of Ro-3306 by Western blot analysis; format: cell-based
[12] = Toxicity in sub-lethal irradiated C57BL/6J mouse xenografted with […] MLL-AF9 cells assessed as Hb level at 1 mg/kg measured after 2 weeks (reference value: 13.4 +/- 0.5 g/dl); format: organism-based; settings: in vivo, 336 h
[13] = Effect on hematopoiesis in sub-lethal irradiated C57BL/6J mouse xenografted with […] MLL-AF9 cells assessed as CD45.1+/CD34 cells in bone marrow at 1 mg/kg measured after 6 weeks by flow cytometry analysis (reference value: 93 %); format: ADME, organism-based; settings: in vivo, 1008 h
[14] = Effect on hematopoiesis in sub-lethal irradiated C57BL/6J mouse xenografted with […] MLL-AF9 cells assessed as CD45.1+/CD34 cells in bone marrow at 5 mg/kg measured after 6 weeks by flow cytometry analysis (reference value: 93 %); format: ADME, organism-based; settings: in vivo, 1008 h
[15] = target: Sphingosine kinase 1 (Homo sapiens, UniProt Q9NYA1); assay: Binding affinity to SphK1 in HEK293 cells assessed as direct target engagement incubated for 24 hrs followed by thermal denaturation at 61 degreeC by ITDRF-CETSA assay; format: cell-based
Chain of Sphingosine kinase 1 (Q9NYA1 whole entry): as the sequence (Q9NYA1 whole entry, looked up, one chain of several) above

[16] = target: Cyclin-dependent kinase 1 (Homo sapiens) (UniProt P06493); assay: Activation of CDK1 in human HL60/VCR cells assessed as induction of Bcl2 phosphorylation at Ser70 residue at 300 nM after 24 hrs by Western blot analysis; format: cell-based; settings: filed as activator
[17] = target: Tyrosine-protein kinase JAK1 (Homo sapiens) (UniProt P23458); assay: Inhibition of wild-type human partial length JAK1 JH2 pseudokinase domain (R537 to D855 residues) expressed in mammalian expression system assessed as residual activity at 1 uM by Kinomescan method relative to control
Chain of Tyrosine-protein kinase JAK1 (Homo sapiens) (P23458 whole entry, the tested form may be a part): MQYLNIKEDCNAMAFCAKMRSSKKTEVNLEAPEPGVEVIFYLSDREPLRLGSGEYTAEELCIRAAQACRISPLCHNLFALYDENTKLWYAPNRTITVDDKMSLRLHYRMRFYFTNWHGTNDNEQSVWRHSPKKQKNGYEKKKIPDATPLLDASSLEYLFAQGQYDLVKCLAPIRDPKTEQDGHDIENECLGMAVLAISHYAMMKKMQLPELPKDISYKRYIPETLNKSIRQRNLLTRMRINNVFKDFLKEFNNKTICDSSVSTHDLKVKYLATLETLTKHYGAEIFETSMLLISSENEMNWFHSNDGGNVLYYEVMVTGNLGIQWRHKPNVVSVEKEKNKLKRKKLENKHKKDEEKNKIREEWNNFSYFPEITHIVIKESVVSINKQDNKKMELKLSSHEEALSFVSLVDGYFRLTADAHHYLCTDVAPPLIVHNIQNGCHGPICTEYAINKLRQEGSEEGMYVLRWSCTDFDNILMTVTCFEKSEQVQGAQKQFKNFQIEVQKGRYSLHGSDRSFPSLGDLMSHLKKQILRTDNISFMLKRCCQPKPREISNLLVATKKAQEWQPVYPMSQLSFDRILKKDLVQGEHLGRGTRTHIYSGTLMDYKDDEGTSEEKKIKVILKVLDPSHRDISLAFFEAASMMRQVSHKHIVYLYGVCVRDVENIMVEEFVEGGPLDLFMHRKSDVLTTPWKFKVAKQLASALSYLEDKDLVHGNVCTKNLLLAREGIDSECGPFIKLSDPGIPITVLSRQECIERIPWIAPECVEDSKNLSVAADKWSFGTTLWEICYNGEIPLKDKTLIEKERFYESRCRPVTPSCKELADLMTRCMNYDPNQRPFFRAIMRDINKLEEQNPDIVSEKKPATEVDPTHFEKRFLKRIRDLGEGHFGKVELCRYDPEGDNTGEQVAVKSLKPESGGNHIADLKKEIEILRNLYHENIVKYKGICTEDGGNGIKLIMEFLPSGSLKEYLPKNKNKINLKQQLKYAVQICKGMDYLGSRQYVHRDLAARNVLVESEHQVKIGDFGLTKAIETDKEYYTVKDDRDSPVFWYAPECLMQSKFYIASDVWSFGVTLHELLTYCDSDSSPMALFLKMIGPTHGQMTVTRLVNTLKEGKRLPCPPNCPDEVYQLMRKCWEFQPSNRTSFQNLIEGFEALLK

[18] = target: T2, Sphingosine kinase 1/2 (Homo sapiens); assay: Inhibition of SPHK1/SPHK2 in human HL-60 cells assessed as sphingosine level assessed per 10^6 cells at 500 nM after 24 hrs by LC-ESI/MS analysis (reference value: 18.3 +/- 3.5 pmol); format: cell-based
[19] = target: T2, Sphingosine kinase 1/2 (Homo sapiens); assay: Inhibition of SPHK1/SPHK2 in human HL-60 cells assessed as sphingosine-1-phosphate level assessed per 10^6 cells at 500 nM after 24 hrs by LC-ESI/MS analysis (reference value: 3.1 +/- 0.3 pmol); format: cell-based
[20] = target: Tubulin beta; assay: Binding affinity to beta tubulin in HEK293 cells assessed as disruption of microtubule polymerization by ITDRF-CETSA assay; format: cell-based, Homo sapiens
[21] = target: Cyclin-dependent kinase 1 (Homo sapiens) (UniProt P06493); assay: Activation of CDK1 in human HL60/VCR cells assessed as induction of Bcl2 phosphorylation at Ser70 residue at 300 nM after 24 hrs in presence of Ro-3306 by Western blot analysis; format: cell-based
[22] = target: T2, Sphingosine kinase 1/2 (Homo sapiens); assay: Inhibition of SPHK1/SPHK2 in human HL-60 cells assessed as induction of apoptosis by measuring spindle assembly checkpoint arrest at 1 uM after 16 hrs by Western blot analysis; format: cell-based

Question: With `COc1ccc(Nc2nc(N)c(C(=O)c3ccc(OC)c(OC)c3)s2)cc1` as the compound, how does the Activity [1] read?
Answer: 44%

Question: And the Activity [2]?
Answer: 14%

Question: And the inhibition [3]?
Answer: inactive

Question: And the Activity [4]?
Answer: Active

Question: What about the Activity [5] of the same compound?
Answer: inactive

Question: What about the Activity [6] of the same compound?
Answer: 4.7 pmol

Question: What about the IC50 [7] of the same compound?
Answer: 0.022 µM

Question: What about the inhibition [8] of the same compound?
Answer: Active

Question: And the Activity [9]?
Answer: 7%

Question: What about the Activity [10] of the same compound?
Answer: 7%

Question: What about the Activity [11] of the same compound?
Answer: inactive

Question: What about the Activity [12] of the same compound?
Answer: 12.8 g/dL

Question: And the Activity [13]?
Answer: 1%

Question: And the Activity [14]?
Answer: 7%

Question: And the IC50 [15]?
Answer: 0.06 µM

Question: What about the Activity [16] of the same compound?
Answer: Active

Question: And the Activity [17]?
Answer: 5.4%

Question: What about the Activity [18] of the same compound?
Answer: 27 pmol

Question: And the Activity [19]?
Answer: 2.3 pmol

Question: And the IC50 [20]?
Answer: 0.025 µM

Question: What about the Activity [21] of the same compound?
Answer: inactive

Question: And the Activity [22]?
Answer: Active
